Inconclusive results and toxic doses are left out. Rule for the calls: active = survival T/C of 150% or more; inactive = T/C below 125% in these data.
Tested on: CD2F1 mice, L1210 leukemia ip, survival T/C
Test: NCI In Vivo Anticancer Drug Screen. Data for tumor model L1210 Leukemia (intraperitoneal) in CD2F1 (CDF1) mice
Conditions: higher = longer survival
In short: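 Ratio T/C, where T is the treated-group value and C the vehicle-dosed control value, from mice implanted with a transplantable tumor.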

[1] = endpoint: mean survival time, dose: 100.0 mg/kg/injection, schedule: Q01DX001 (ip), vehicle: saline with Tween-80
[2] = endpoint: mean survival time, dose: 200.0 mg/kg/injection, schedule: Q01DX001 (ip), vehicle: saline with Tween-80
[3] = endpoint: mean survival time, dose: 400.0 mg/kg/injection, schedule: Q01DX001 (ip), vehicle: saline with Tween-80
[4] = endpoint: mean survival time, dose: 100.0 mg/kg/injection, schedule: Q01DX001 (ip), vehicle: saline
[5] = endpoint: mean survival time, dose: 200.0 mg/kg/injection, schedule: Q01DX001 (ip), vehicle: saline
[6] = endpoint: mean survival time, dose: 400.0 mg/kg/injection, schedule: Q01DX001 (ip), vehicle: saline
[7] = endpoint: mean survival time, dose: 100.0 mg/kg/injection, schedule: Q04DX003 (ip), vehicle: saline with Tween-80
[8] = endpoint: mean survival time, dose: 200.0 mg/kg/injection, schedule: Q04DX003 (ip), vehicle: saline with Tween-80
[9] = endpoint: mean survival time, dose: 400.0 mg/kg/injection, schedule: Q04DX003 (ip), vehicle: saline with Tween-80
[10] = endpoint: mean survival time, dose: 50.0 mg/kg/injection, schedule: Q01DX009 (ip), vehicle: saline with Tween-80
[11] = endpoint: mean survival time, dose: 100.0 mg/kg/injection, schedule: Q01DX009 (ip), vehicle: saline with Tween-80
[12] = endpoint: mean survival time, dose: 200.0 mg/kg/injection, schedule: Q01DX009 (ip), vehicle: saline with Tween-80

Measured: T/C

NNC(=O)c1nc2ccccc2s1
inactive: endpoint: mean survival time, dose: 37.5 mg/kg/injection, schedule: Q04DX003 (ip), vehicle: saline sonified 97 % of control | endpoint: mean survival time, dose: 75.0 mg/kg/injection, schedule: Q04DX003 (ip), vehicle: saline sonified 92 % of control | endpoint: mean survival time, dose: 150.0 mg/kg/injection, schedule: Q04DX003 (ip), vehicle: saline sonified 94 % of control

CCOc1c(C#N)c2c(N)ncnc2n1C1OC(CO)C(O)C1O (stereo unspecified)
inactive: endpoint: mean survival time, dose: 12.5 mg/kg/injection, schedule: Q01DX009 (ip), vehicle: distilled water + Tween-80 103 % of control | endpoint: mean survival time, dose: 25.0 mg/kg/injection, schedule: Q01DX009 (ip), vehicle: distilled water + Tween-80 112 % of control | endpoint: mean survival time, dose: 50.0 mg/kg/injection, schedule: Q01DX009 (ip), vehicle: distilled water + Tween-80 112 % of control | endpoint: mean survival time, dose: 100.0 mg/kg/injection, schedule: Q01DX009 (ip), vehicle: distilled water + Tween-80 117 % of control

CC(C)(CNC1CCCCC1)OC(=O)c1ccccc1
inactive: endpoint: mean survival time, dose: 75.0 mg/kg/injection, schedule: Q01DX001 (ip), vehicle: saline 105 % of control | endpoint: mean survival time, dose: 150.0 mg/kg/injection, schedule: Q01DX001 (ip), vehicle: saline 100 % of control

COC(=O)C(C)C1CCC2C3CCC4CC(OC(C)=O)CCC4(C)C3CC(OC(C)=O)C12C (stereo unspecified)
inactive: [1] 95 % of control | [2] 103 % of control | [3] 94 % of control

BrC1=C(Br)C(Br)(Br)C(Br)=C1Br
inactive: endpoint: mean survival time, dose: 1.25 mg/kg/injection, schedule: Q01DX009 (ip), vehicle: saline with Tween-80 106 % of control | endpoint: mean survival time, dose: 2.5 mg/kg/injection, schedule: Q01DX009 (ip), vehicle: saline with Tween-80 101 % of control | endpoint: mean survival time, dose: 5.0 mg/kg/injection, schedule: Q01DX009 (ip), vehicle: saline with Tween-80 101 % of control

O=S(=O)(SC1=NCCN1)c1ccccc1
inactive: [4] 101 % of control | [5] 97 % of control | [6] 101 % of control

Cc1cc2ccccc2[n+](C)c1-c1ccccc1Cl (tested in a mixture with another compound)
inactive: endpoint: mean survival time, dose: 5.0 mg/kg/injection, schedule: Q01DX009 (ip), vehicle: saline 104 % of control | endpoint: mean survival time, dose: 5.0 mg/kg/injection, schedule: Q04DX003 (ip), vehicle: saline 101 % of control | endpoint: mean survival time, dose: 10.0 mg/kg/injection, schedule: Q01DX009 (ip), vehicle: saline 100 % of control | endpoint: mean survival time, dose: 10.0 mg/kg/injection, schedule: Q04DX003 (ip), vehicle: saline 101 % of control | endpoint: mean survival time, dose: 20.0 mg/kg/injection, schedule: Q04DX003 (ip), vehicle: saline 105 % of control

O=C(Nc1nccs1)c1ccc([N+](=O)[O-])cc1
inactive: [1] 95 % of control | [2] 88 % of control | [3] 100 % of control

C#CC1(OC(=O)c2ccccc2)CCCCC1
inactive: [7] 98 % of control | [8] 96 % of control | [9] 102 % of control

Cc1cc(CSc2ssc(=S)c2-c2ccccc2)c(CSc2ssc(=S)c2-c2ccccc2)cc1C
inactive: [1] 98 % of control | [2] 98 % of control | [3] 97 % of control

Nc1nc(NNC(=O)CCCO)c2nonc2n1
inactive: endpoint: mean survival time, dose: 9.4 mg/kg/injection, schedule: Q01DX005 (ip), vehicle: other 97 % of control | endpoint: mean survival time, dose: 18.8 mg/kg/injection, schedule: Q01DX005 (ip), vehicle: other 109 % of control | endpoint: mean survival time, dose: 37.5 mg/kg/injection, schedule: Q01DX005 (ip), vehicle: other 105 % of control | endpoint: mean survival time, dose: 75.0 mg/kg/injection, schedule: Q01DX005 (ip), vehicle: other 105 % of control | endpoint: mean survival time, dose: 150.0 mg/kg/injection, schedule: Q01DX005 (ip), vehicle: other 105 % of control

O=CNNC(=S)Nc1ccccc1
inactive: [10] 100 % of control | [11] 96 % of control | [12] 96 % of control

Cc1ccccc1CC(C)c1ccccc1 (stereo unspecified)
inactive: [10] 101 % of control | [11] 101 % of control | [7] 90 % of control | [12] 90 % of control | [8] 88 % of control

C=C1C=CC1=O
inactive: endpoint: mean survival time, dose: 1.0 micrograms/kg/injection, schedule: Q01DX009 (ip), vehicle: olive oil, sesame oil, peanut oil 97 % of control | endpoint: mean survival time, dose: 1.0 micrograms/kg/injection, schedule: Q01DX009 (ip), vehicle: other 102 % of control | endpoint: mean survival time, dose: 6.0 micrograms/kg/injection, schedule: Q01DX009 (ip), vehicle: olive oil, sesame oil, peanut oil 97 % of control | endpoint: mean survival time, dose: 6.0 micrograms/kg/injection, schedule: Q01DX009 (ip), vehicle: other 103 % of control | endpoint: mean survival time, dose: 10.0 micrograms/kg/injection, schedule: Q01DX009 (ip), vehicle: olive oil, sesame oil, peanut oil 94 % of control | endpoint: mean survival time, dose: 10.0 micrograms/kg/injection, schedule: Q01DX009 (ip), vehicle: other 101 % of control | endpoint: mean survival time, dose: 60.0 micrograms/kg/injection, schedule: Q01DX009 (ip), vehicle: olive oil, sesame oil, peanut oil 96 % of control | endpoint: mean survival time, dose: 60.0 micrograms/kg/injection, schedule: Q01DX009 (ip), vehicle: other 104 % of control | endpoint: mean survival time, dose: 100.0 micrograms/kg/injection, schedule: Q01DX006 (ip), vehicle: other 101 % of control | endpoint: mean survival time, dose: 100.0 micrograms/kg/injection, schedule: Q01DX009 (ip), vehicle: olive oil, sesame oil, peanut oil 97 % of control | endpoint: mean survival time, dose: 100.0 micrograms/kg/injection, schedule: Q01DX009 (ip), vehicle: other 100 % of control | endpoint: mean survival time, dose: 600.0 micrograms/kg/injection, schedule: Q01DX009 (ip), vehicle: olive oil, sesame oil, peanut oil 91 % of control | endpoint: mean survival time, dose: 1000.0 micrograms/kg/injection, schedule: Q01DX009 (ip), vehicle: olive oil, sesame oil, peanut oil 96 % of control

CCCCOS(=O)(=O)c1ccc(N)cc1
inactive: [7] 92 % of control | [8] 98 % of control | [9] 97 % of control

Cc1cn(C2CC3O[P@](=S)(Nc4ccccc4)OCC3O2)c(=O)[nH]c1=O (stereo partly specified)
inactive: endpoint: median survival time, dose: 12.75 mg/kg/injection, schedule: Q01DX005 (ip), vehicle: saline with Tween-80 100 % of control | endpoint: median survival time, dose: 25.5 mg/kg/injection, schedule: Q01DX005 (ip), vehicle: saline with Tween-80 100 % of control | endpoint: median survival time, dose: 51.0 mg/kg/injection, schedule: Q01DX005 (ip), vehicle: saline with Tween-80 100 % of control | endpoint: median survival time, dose: 102.0 mg/kg/injection, schedule: Q01DX005 (ip), vehicle: saline with Tween-80 93 % of control

O=c1cc(-c2ccc3c(c2)OCO3)oc2ccccc12
inactive: endpoint: mean survival time, dose: 50.0 mg/kg/injection, schedule: Q01DX001 (ip), vehicle: saline 102 % of control | [4] 98 % of control | [5] 98 % of control | [6] 92 % of control

Cn1cnc([N+](=O)[O-])c1SCC(=O)O
inactive: endpoint: mean survival time, dose: 12.5 mg/kg/injection, schedule: Q01DX009 (ip), vehicle: saline with Tween-80 95 % of control | endpoint: mean survival time, dose: 12.5 mg/kg/injection, schedule: Q01DX009 (ip), vehicle: saline 109 % of control | endpoint: mean survival time, dose: 25.0 mg/kg/injection, schedule: Q01DX009 (ip), vehicle: saline with Tween-80 98 % of control | endpoint: mean survival time, dose: 25.0 mg/kg/injection, schedule: Q01DX009 (ip), vehicle: saline 112 % of control | [10] 95 % of control | endpoint: mean survival time, dose: 50.0 mg/kg/injection, schedule: Q01DX009 (ip), vehicle: saline 109 % of control | [11] 98 % of control | endpoint: mean survival time, dose: 100.0 mg/kg/injection, schedule: Q01DX009 (ip), vehicle: saline 101 % of control | [12] 104 % of control | endpoint: mean survival time, dose: 200.0 mg/kg/injection, schedule: Q01DX009 (ip), vehicle: saline 104 % of control | endpoint: mean survival time, dose: 400.0 mg/kg/injection, schedule: Q01DX009 (ip), vehicle: saline with Tween-80 98 % of control | endpoint: mean survival time, dose: 400.0 mg/kg/injection, schedule: Q01DX009 (ip), vehicle: saline 109 % of control

From PubChem BioAssay AID256 (DTP/NCI, 2004)
